Read-outs that look alike come from different tables or passages of the source.

We go through 5 compounds from article PMC9768319 (iScience, 2022).

Series [1] relates to KPC1242 cells. The series can be described thus: Ki-67 proliferation staining. The note with it: KPC1242, 24-h treatment, MMe 0.7 μM or pCF3-MMe 3 μM. Type of series: cell-based, murine.
Another series concerns AsPC-1 cells. In words: TMRE retention by flow cytometry. The note with it: AsPC-1, serum-starved, 1 h treatment. The series is classed as cell-based, human.
The next series relates to HPSC cells. In words: TMRE retention by flow cytometry. The series is classed as cell-based, human. The note with it: serum-starved, 1 h treatment.
The subject of series [2] is KPC1242 cells. In words: Luminescent ATP detection assay. The series is classed as cell-based, murine. The following applies: KPC1242, 24 h, 0.7 μM MMe or 3 μM pCF3-MMe.
The subject of series [3] is AMP-Activated Protein Kinase (AMPK). The series can be described thus: AMPK Thr172 phosphorylation immunoblot. The series is classed as cell-based, murine. The following applies: KPC1242, 0.7 μM MMe or 3 μM pCF3-MMe.
Series [4] is described as follows: Tolerability, single intra-peritoneal injection in non-tumor-bearing mice. Type of series: in vivo.
A short description of series [5]: Tolerability, daily injection for 5 consecutive days in non-tumor-bearing mice. The series is classed as in vivo. The following applies: daily for 5 consecutive days, 25 μg/mouse to 1 mg/mouse.
For another series, the system named is HPNE and HPSC cells. Type of series: cell-based, human. The following applies: for sensitivity of normal, non-transformed cells compared to cancer cells: HPNE and HPSC vs cancer cells.
Series [6] relates to cancer cells (KPC1242, Panc-1, AsPC-1, HCT-116, MDA-MB-231, OVCAR-4, OVCAR-8). In words: Cell confluence across the battery of cancer cell lines. Type of series: cell-based. The following applies: escalating concentrations (0.1 µM-10 µM).
Series [7] deals with pancreatic, breast, and colon cancers. The note with it: cited from earlier work.
The conditions of series [8]: after administration; cited from earlier work.
Series [9] is classed as in vivo, mice.
The next series deals with Panc-1 cells. The series can be described thus: Cell confluence growth inhibition. Type of series: cell-based, human.

Take `N=C(N)NC(=N)NCCCCCCCCCC[P+](c1ccccc1)(c1ccccc1)c1ccccc1.[Br-]` [MMe, 10-[(carbamimidamidomethanimidoyl)amino]decyl-triphenylphosphonium bromide]: the “reduction in Ki-67 levels” value in the series with KPC1242 cells [1] was 20-30%. Also, the “TMRE accumulation within mitochondria” value in the series with AsPC-1 cells is listed as “significantly reduced TMRE accumulation”; with HPSC cells it was “did not affect TMRE accumulation”. The “Levels of ATP” value in the series with KPC1242 cells [2] was “significantly reduced”. For the same compound, in series [3], the “AMPK activation (Thr172 phosphorylation)” value is recorded as “significant increase in AMPK activation”. Moreover, the “mortality after single injection” value in [4] (single intra-peritoneal injection of 250 μg or 1 mg) is “significant and rapid mortality”. Also, the “tolerability of repeated injection” value in series [5] is reported as “succumbed to 4-fold lower doses”. Further, in the series with HPNE and HPSC cells, the “sensitivity of normal, non-transformed cells compared to cancer cells” value is listed as “more than a log-unit less sensitive”. In addition, the cell confluency result in series [6] was “decreased in a concentration-dependent manner”. Besides, in [7], the “fold more efficacious compared to metformin” value is recorded as 100- to 1000 fold.
On to `COC1=C(OC)C(=O)C(CCCCCCCCCC[P+](c2ccccc2)(c2ccccc2)c2ccccc2)=C(C)C1=O` [MitoQ], for which the half-life in series [8] was approximately 30 min.
`N=C(N)NC(=N)NCCCCCCCCCC[P+](c1cccc(C(F)(F)F)c1)(c1cccc(C(F)(F)F)c1)c1cccc(C(F)(F)F)c1.[Br-]` [mCF3-MMe, (10-(3-carbamimidoylguanidino)decyl)tris(3-(trifluoromethyl)phenyl)phosphonium bromide]: in the series with HPNE and HPSC cells, the “sensitivity of normal, non-transformed cells compared to cancer cells” value is reported as “more than a log-unit less sensitive” and the “reduction in toxicity to normal cells compared to MMe” value was approximately 10 fold. The cell confluency result in [6] is recorded as “decreased in a concentration-dependent manner”.
Take `N=C(N)NC(=N)NCCCCCCCCCC[P+](c1ccc(C(F)(F)F)cc1)(c1ccc(C(F)(F)F)cc1)c1ccc(C(F)(F)F)cc1.[Br-]` [pCF3-MMe, (10-(3-carbamimidoylguanidino)decyl)tris(4-(trifluoromethyl)phenyl)phosphonium bromide]: in the series with KPC1242 cells [1], the “reduction in Ki-67 levels” value was 20-30%. For the same compound, the “TMRE accumulation within mitochondria” value was “significantly reduced TMRE accumulation” in the series on AsPC-1 cells and “did not affect TMRE accumulation” with HPSC cells. Moreover, in the series on KPC1242 cells [2], the “Levels of ATP” value was “significantly reduced”. In series [3], the “AMPK activation (Thr172 phosphorylation)” value is on record as “significant increase in AMPK activation”. Moreover, the “detection in the blood and liver” value in [9] (2 h after intra-tumoral injection of 1 mg) is “undetectable”; in [9] (6 h after injection (not shown)) it was “barely detectable above the signal-to-noise ratio”. Besides, the “levels within the tumors” value in series [9] (24 h after injection, 1 mg/mouse) is listed as “measurable levels”. In series [4] (single intra-peritoneal injection of 1 mg), this compound returned a mice surviving of 100%. In addition, the “tolerability of repeated injection” value in [5] is recorded as “tolerated a 1 mg dose”. Besides, in the series with HPNE and HPSC cells, the “sensitivity of normal, non-transformed cells compared to cancer cells” value is “more than a log-unit less sensitive”. Further, the “toxic effects toward non-transformed HPNE and HPSC-1 cells” value with HPNE and HPSC cells (compared to parent MMe and mCF3-MMe) is on record as “least toxic effects”. Moreover, in the series with HPNE and HPSC cells, the “reduction in toxicity to normal cells compared to MMe” value is on record as approximately 10 fold. Further, the cell confluency entry in [6] was “decreased in a concentration-dependent manner”.
`COc1ccc([P+](CCCCCCCCCCNC(=N)CC(=N)N)(c2ccc(OC)cc2)c2ccc(OC)cc2)cc1.[Br-]` [pMeO-MMe, [10-(2-carbamimidoylethanimidamido)decyl]tris(4-methoxyphenyl)phosphonium bromide]: in the series on Panc-1 cells (Panc-1 (Figure S5), escalating concentrations), the “confluence of human pancreatic cancer cells” value is “concentration-dependent decrease in confluence”. Moreover, the “efficacy in pancreas cancer cells” value with Panc-1 cells (in contrast to the fluorinated compound) is listed as “lower efficacy”.
